Source: the supplement of paper PMC10307832

Assays:
Test in all cases: relative viability (nuclei count vs DMSO), 5 days (fraction); higher = more cells survive
[1] = compound: COc1cc(Nc2c(C#N)cnc3cc(OCCCN4CCN(C)CC4)c(OC)cc23)c(Cl)cc1Cl [Bosutinib] + CC(C)C[C@H](NC(=O)[C@H](Cc1ccccc1)NC(=O)c1cnccn1)B(O)O [Bortezomib] (partner 0.002 µM)
In short: (§1)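 The day after seeding in 1536-well plates, lung cancer cell lines were treated by pin tool with a single drug, or with a fixed anchor-drug dose together with five library-drug doses (not always all listed) in √10 steps. After 5 days, a combined fix-and-stain solution (final 0.05% Triton X-100, 1% formaldehyde, 1 ug/ml Hoechst) was added. Nuclei counted on 4× images gave relative viability as treated counts over vehicle counts, reported as the median of duplicate plates.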

[2] = compound: COc1cc(Nc2c(C#N)cnc3cc(OCCCN4CCN(C)CC4)c(OC)cc23)c(Cl)cc1Cl [Bosutinib] + CC1(C)CCC(c2ccc(Cl)cc2)=C(CN2CCN(c3ccc(C(=O)NS(=O)(=O)c4ccc(N[C@H](CCN5CCOCC5)CSc5ccccc5)c(S(=O)(=O)C(F)(F)F)c4)cc3)CC2)C1 [Navitoclax] (partner 0.5 µM)
In short: as §1

[3] = compound: COc1cc(Nc2c(C#N)cnc3cc(OCCCN4CCN(C)CC4)c(OC)cc23)c(Cl)cc1Cl [Bosutinib] + COc1cccc2cc(-c3nc([C@H]4CC[C@H](C(=O)O)CC4)n4ncnc(N)c34)[nH]c12 [OSI-027] (partner 0.5 µM)
In short: as §1

[4] = compound: COc1cc(Nc2c(C#N)cnc3cc(OCCCN4CCN(C)CC4)c(OC)cc23)c(Cl)cc1Cl [Bosutinib] + CS(=O)(=O)CCNCc1ccc(-c2ccc3ncnc(Nc4ccc(OCc5cccc(F)c5)c(Cl)c4)c3c2)o1 [Lapatinib] (partner 2 µM)
In short: as §1

[5] = compound: COc1cc(Nc2c(C#N)cnc3cc(OCCCN4CCN(C)CC4)c(OC)cc23)c(Cl)cc1Cl [Bosutinib] + CS(=O)(=O)N1CCN(Cc2cc3nc(-c4cccc5[nH]ncc45)nc(N4CCOCC4)c3s2)CC1 [Pictilisib] (partner 1 µM)
In short: as §1

LCLC-97TM1
relative viability ([1]; first compound 0.01 µM): 0.567
relative viability ([1]; first compound 0.03162 µM): 0.937
relative viability ([1]; first compound 0.1 µM): 0.894
relative viability ([1]; first compound 1 µM): 0.572
relative viability ([2]; first compound 0.01 µM): 0.541
relative viability ([2]; first compound 0.03162 µM): 0.464
relative viability ([2]; first compound 0.1 µM): 0.595
relative viability ([2]; first compound 1 µM): 0.483
relative viability ([3]; first compound 0.01 µM): 0.545
relative viability ([3]; first compound 0.03162 µM): 0.609
relative viability ([3]; first compound 0.1 µM): 0.548
relative viability ([3]; first compound 1 µM): 0.56
relative viability ([4]; first compound 0.01 µM): 1.43
relative viability ([4]; first compound 0.03162 µM): 1.29
relative viability ([4]; first compound 0.1 µM): 1.24
relative viability ([4]; first compound 1 µM): 1.14
relative viability ([5]; first compound 0.01 µM): 0.182
relative viability ([5]; first compound 0.03162 µM): 0.221
relative viability ([5]; first compound 0.1 µM): 0.254
relative viability ([5]; first compound 1 µM): 0.267

NCI-H1993
relative viability ([1]; first compound 0.01 µM): 1.11
relative viability ([1]; first compound 0.03162 µM): 1.26
relative viability ([1]; first compound 0.1 µM): 1.08
relative viability ([1]; first compound 1 µM): 0.949
relative viability ([2]; first compound 0.01 µM): 0.871
relative viability ([2]; first compound 0.03162 µM): 0.968
relative viability ([2]; first compound 0.1 µM): 0.957
relative viability ([2]; first compound 1 µM): 0.742
relative viability ([3]; first compound 0.01 µM): 0.54
relative viability ([3]; first compound 0.03162 µM): 0.541
relative viability ([3]; first compound 0.1 µM): 0.539
relative viability ([3]; first compound 1 µM): 0.469
relative viability ([4]; first compound 0.01 µM): 0.814
relative viability ([4]; first compound 0.03162 µM): 0.85
relative viability ([4]; first compound 0.1 µM): 0.947
relative viability ([4]; first compound 1 µM): 0.835
relative viability ([5]; first compound 0.01 µM): 0.827
relative viability ([5]; first compound 0.03162 µM): 0.896
relative viability ([5]; first compound 0.1 µM): 0.967
relative viability ([5]; first compound 1 µM): 0.741

HARA
relative viability ([1]; first compound 0.01 µM): 1.15
relative viability ([1]; first compound 0.03162 µM): 1.13
relative viability ([1]; first compound 0.1 µM): 1.1
relative viability ([1]; first compound 1 µM): 1.18
relative viability ([2]; first compound 0.01 µM): 1.16
relative viability ([2]; first compound 0.03162 µM): 1.1
relative viability ([2]; first compound 0.1 µM): 1.12
relative viability ([2]; first compound 1 µM): 1.19
relative viability ([3]; first compound 0.01 µM): 0.497
relative viability ([3]; first compound 0.03162 µM): 0.512
relative viability ([3]; first compound 0.1 µM): 0.503
relative viability ([3]; first compound 1 µM): 0.344
relative viability ([4]; first compound 0.01 µM): 0.7
relative viability ([4]; first compound 0.03162 µM): 0.657
relative viability ([4]; first compound 0.1 µM): 0.757
relative viability ([4]; first compound 1 µM): 0.76
relative viability ([5]; first compound 0.01 µM): 0.442
relative viability ([5]; first compound 0.03162 µM): 0.453
relative viability ([5]; first compound 0.1 µM): 0.45
relative viability ([5]; first compound 1 µM): 0.352

NCI-H460
relative viability ([1]; first compound 0.01 µM): 1.17
relative viability ([1]; first compound 0.03162 µM): 1.04
relative viability ([1]; first compound 0.1 µM): 1.01
relative viability ([1]; first compound 1 µM): 0.91
relative viability ([2]; first compound 0.01 µM): 1.09
relative viability ([2]; first compound 0.03162 µM): 1.11
relative viability ([2]; first compound 0.1 µM): 1.02
relative viability ([2]; first compound 1 µM): 0.683
relative viability ([3]; first compound 0.01 µM): 0.803
relative viability ([3]; first compound 0.03162 µM): 0.631
relative viability ([3]; first compound 0.1 µM): 0.7
relative viability ([3]; first compound 1 µM): 0.603
relative viability ([4]; first compound 0.01 µM): 1.03
relative viability ([4]; first compound 0.03162 µM): 0.875
relative viability ([4]; first compound 0.1 µM): 0.874
relative viability ([4]; first compound 1 µM): 0.833
relative viability ([5]; first compound 0.01 µM): 0.38
relative viability ([5]; first compound 0.03162 µM): 0.353
relative viability ([5]; first compound 0.1 µM): 0.321
relative viability ([5]; first compound 1 µM): 0.299

NCI-H1650
relative viability ([1]; first compound 0.01 µM): 0.215
relative viability ([1]; first compound 0.03162 µM): 0.204
relative viability ([1]; first compound 0.1 µM): 0.214
relative viability ([1]; first compound 1 µM): 0.279
relative viability ([2]; first compound 0.01 µM): 1.46
relative viability ([2]; first compound 0.03162 µM): 1.06
relative viability ([2]; first compound 0.1 µM): 1.18
relative viability ([2]; first compound 1 µM): 0.754
relative viability ([3]; first compound 0.01 µM): 0.734
relative viability ([3]; first compound 0.03162 µM): 0.6
relative viability ([3]; first compound 0.1 µM): 0.444
relative viability ([3]; first compound 1 µM): 0.41
relative viability ([4]; first compound 0.01 µM): 0.835
relative viability ([4]; first compound 0.03162 µM): 0.731
relative viability ([4]; first compound 0.1 µM): 0.745
relative viability ([4]; first compound 1 µM): 0.636
relative viability ([5]; first compound 0.01 µM): 0.587
relative viability ([5]; first compound 0.03162 µM): 0.516
relative viability ([5]; first compound 0.1 µM): 0.524
relative viability ([5]; first compound 1 µM): 0.49

EKVX
relative viability ([1]; first compound 0.01 µM): 1.18
relative viability ([1]; first compound 0.03162 µM): 1.05
relative viability ([1]; first compound 0.1 µM): 0.982
relative viability ([1]; first compound 1 µM): 0.713
relative viability ([2]; first compound 0.01 µM): 0.882
relative viability ([2]; first compound 0.03162 µM): 0.929
relative viability ([2]; first compound 0.1 µM): 0.914
relative viability ([2]; first compound 1 µM): 0.807
relative viability ([3]; first compound 0.01 µM): 0.79
relative viability ([3]; first compound 0.03162 µM): 0.764
relative viability ([3]; first compound 0.1 µM): 0.654
relative viability ([3]; first compound 1 µM): 0.55
relative viability ([4]; first compound 0.01 µM): 0.231
relative viability ([4]; first compound 0.03162 µM): 0.216
relative viability ([4]; first compound 0.1 µM): 0.242
relative viability ([4]; first compound 1 µM): 0.172
relative viability ([5]; first compound 0.01 µM): 0.427
relative viability ([5]; first compound 0.03162 µM): 0.469
relative viability ([5]; first compound 0.1 µM): 0.41
relative viability ([5]; first compound 1 µM): 0.309

NCI-H1755
relative viability ([1]; first compound 0.01 µM): 0.941
relative viability ([1]; first compound 0.03162 µM): 1.07
relative viability ([1]; first compound 0.1 µM): 1.03
relative viability ([1]; first compound 1 µM): 0.894
relative viability ([2]; first compound 0.01 µM): 0.971
relative viability ([2]; first compound 0.03162 µM): 1.02
relative viability ([2]; first compound 0.1 µM): 1.04
relative viability ([2]; first compound 1 µM): 0.925
relative viability ([3]; first compound 0.01 µM): 0.786
relative viability ([3]; first compound 0.03162 µM): 0.853
relative viability ([3]; first compound 0.1 µM): 0.803
relative viability ([3]; first compound 1 µM): 0.663
relative viability ([4]; first compound 0.01 µM): 1.03
relative viability ([4]; first compound 0.03162 µM): 1.11
relative viability ([4]; first compound 0.1 µM): 1.06
relative viability ([4]; first compound 1 µM): 0.915
relative viability ([5]; first compound 0.01 µM): 0.45
relative viability ([5]; first compound 0.03162 µM): 0.497
relative viability ([5]; first compound 0.1 µM): 0.509
relative viability ([5]; first compound 1 µM): 0.287
